Several values for one entry are separate records, joined by “and”; a condition that tells them apart may be missing. Equal values may be shown once.
Assays:
Conditions in all cases: incubation time: 72 h
CAL-85-1 [1] = assay: normalised viability (% of control), CellTiter-Blue; higher = more viable cells (about 100 = DMSO control)
Description: (§1)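 DSRT, CellTiter-Blue viability, 72 h incubation. Signal is normalised to DMSO and benzethonium chloride controls. Value is the normalised response at dose 6.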

HDQ-P1 [2] = assay: as above
Description: as §1

CAL-51 [3] = assay: as above
Description: as §1

MDA-MB-453 [4] = assay: as above
Description: as §1

DU-4475 [5] = assay: as above
Description: as §1

CAL-148 [6] = assay: as above
Description: as §1

CAL-85-1 [7] = assay: as above; remark: listed apart in the source
Description: (§2)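 DSRT, CellTiter-Blue viability, 72 h incubation. Signal is normalised to DMSO and benzethonium chloride controls. Value is the normalised response at dose 8.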

HDQ-P1 [8] = assay: as above; remark: listed apart in the source
Description: as §2

CAL-51 [9] = assay: as above; remark: listed apart in the source
Description: as §2

MDA-MB-453 [10] = assay: as above; remark: listed apart in the source
Description: as §2

CAL-148 [11] = assay: as above; remark: listed apart in the source
Description: as §2

Hs578T [12] = assay: normalised response (% of control), CellTiter-Glo; higher = more viable cells (100 = DMSO, 0 = benzethonium chloride kill control)
Description: (§3)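 DSRT, 72 h incubation, CellTox Green / CellTiter-Glo readout. Signal is normalised to DMSO and benzethonium chloride controls. Value is the normalised response at the highest dose.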

CAL-85-1 [13] = assay: as above
Description: as §3

HCC1937 [14] = assay: as above
Description: as §3

MCF-10A [15] = assay: as above
Description: as §3

HDQ-P1 [16] = assay: as above
Description: as §3

CAL-51 [17] = assay: as above
Description: as §3

SK-BR-3 = assay: as above
Description: as §3

BT-549 [18] = assay: as above
Description: as §3

MDA-MB-231 [19] = assay: as above
Description: as §3

MDA-MB-453 [20] = assay: as above
Description: as §3

BT-474 [21] = assay: as above
Description: as §3

CAL-120 [22] = assay: as above
Description: as §3

MFM-223 [23] = assay: as above
Description: as §3

DU-4475 [24] = assay: as above
Description: as §3

HCC1143 [25] = assay: as above
Description: as §3

HCC1599 [26] = assay: as above
Description: as §3

MDA-MB-468 [27] = assay: as above
Description: as §3

CAL-148 [28] = assay: as above
Description: as §3

MDA-MB-436 [29] = assay: as above
Description: as §3

Hs578T [30] = assay: normalised response (% of control), CellTox Green; higher = less cell death (100 = DMSO, 0 = benzethonium chloride kill control)
Outline: (§4)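 CellTox Green fluorescence (485/520 nm) and, after 10 min at room temperature, CellTiter-Glo luminescence were read from breast cancer cell lines incubated 72 h in 384-well plates. Cells were seeded as 20 µl suspension onto compound at 5 concentrations in 10-fold steps over a 10,000-fold range chosen per compound. Each plate was normalised to 0.1 % DMSO (100) and a positive kill control (0). Values are normalised signals, one per concentration.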

CAL-85-1 [31] = assay: as above
Outline: as §4

HCC1937 [32] = assay: as above
Outline: as §4

MCF-10A [33] = assay: as above
Outline: as §4

HDQ-P1 [34] = assay: as above
Outline: as §4

CAL-51 [35] = assay: as above
Outline: as §4

BT-549 [36] = assay: as above
Outline: as §4

MDA-MB-231 [37] = assay: as above
Outline: as §4

MDA-MB-453 [38] = assay: as above
Outline: as §4

BT-474 [39] = assay: as above
Outline: as §4

CAL-120 [40] = assay: as above
Outline: as §4

MFM-223 [41] = assay: as above
Outline: as §4

DU-4475 [42] = assay: as above
Outline: as §4

HCC1143 [43] = assay: as above
Outline: as §4

HCC1599 [44] = assay: as above
Outline: as §4

MDA-MB-468 [45] = assay: as above
Outline: as §4

CAL-148 [46] = assay: as above
Outline: as §4

MDA-MB-436 [47] = assay: as above
Outline: as §4

Cc1c(N)nc([C@H](CC(N)=O)NC[C@H](N)C(N)=O)nc1C(=O)N[C@H](C(=O)N[C@H](C)[C@@H](O)[C@H](C)C(=O)N[C@H](C(=O)NCCc1nc(-c2nc(C(=O)NCCC[S+](C)C)cs2)cs1)[C@@H](C)O)[C@@H](OC1OC(CO)C(O)C(O)C1OC1OC(CO)C(O)C(OC(N)=O)C1O)c1cnc[nH]1 (stereo partly drawn) [Bleomycin] (300 nM)
normalised viability (CAL-85-1 [1]): 92.5% | normalised viability (HDQ-P1 [2]): 72.9% | normalised viability (CAL-51 [3]): 90.9% | normalised viability (MDA-MB-453 [4]): 102% | normalised viability (DU-4475 [5]): 107% | normalised viability (CAL-148 [6]): 81.5%

CCCCCOC(=O)Nc1nc(=O)n([C@@H]2O[C@H](C)[C@@H](O)[C@H]2O)cc1F [Capecitabine] (300 nM)
normalised viability (CAL-85-1 [1]): 92.1% and 98.6% | normalised viability (HDQ-P1 [2]): 62.7% and 83.6% | normalised viability (CAL-51 [3]): 103% and 96.5% | normalised viability (MDA-MB-453 [4]): 108% and 94.3% | normalised viability (CAL-148 [6]): 98% and 94.3%

CCCCCOC(=O)Nc1nc(=O)n([C@@H]2O[C@H](C)[C@@H](O)[C@H]2O)cc1F [Capecitabine] (3000 nM)
normalised viability (CAL-85-1 [7]): 82.3% and 95.4% | normalised viability (HDQ-P1 [8]): 89.4% and 86.4% | normalised viability (CAL-51 [9]): 109% and 96% | normalised viability (MDA-MB-453 [10]): 95.7% and 93.7% | normalised viability (CAL-148 [11]): 98.8% and 92.8%

COc1cc2c(cc1-c1c(C)noc1C)ncc1[nH]c(=O)n([C@H](C)c3ccccn3)c12 [I-BET151] (10000 nM)
normalised response (Hs578T [12]): 35% | normalised response (CAL-85-1 [13]): 30.7% | normalised response (HCC1937 [14]): 72.2% | normalised response (MCF-10A [15]): 54.5% | normalised response (HDQ-P1 [16]): 67% | normalised response (CAL-51 [17]): 59.5% | normalised response (SK-BR-3): 53% | normalised response (BT-549 [18]): 38.5% | normalised response (MDA-MB-231 [19]): 62.5% | normalised response (MDA-MB-453 [20]): 21.8% | normalised response (BT-474 [21]): 59.3% | normalised response (CAL-120 [22]): 64% | normalised response (MFM-223 [23]): 49.9% | normalised response (DU-4475 [24]): 53.3% | normalised response (HCC1143 [25]): 59.3% | normalised response (HCC1599 [26]): 67.6% | normalised response (MDA-MB-468 [27]): 50.6% | normalised response (CAL-148 [28]): 71.7% | normalised response (MDA-MB-436 [29]): 75.6% | normalised response (Hs578T [30]): 112% | normalised response (CAL-85-1 [31]): 48.9% | normalised response (HCC1937 [32]): 66.3% | normalised response (MCF-10A [33]): 28.1% | normalised response (HDQ-P1 [34]): 72.8% | normalised response (CAL-51 [35]): 47.1% | normalised response (BT-549 [36]): 81.8% | normalised response (MDA-MB-231 [37]): 45.2% | normalised response (MDA-MB-453 [38]): 98.5% | normalised response (BT-474 [39]): 95.2% | normalised response (CAL-120 [40]): 76.1% | normalised response (MFM-223 [41]): 104% | normalised response (DU-4475 [42]): 81.2% | normalised response (HCC1143 [43]): 104% | normalised response (HCC1599 [44]): 93.5% | normalised response (MDA-MB-468 [45]): -18.1% | normalised response (CAL-148 [46]): 72.4% | normalised response (MDA-MB-436 [47]): 35.5%

— the supplement of paper PMC4862054
